Measurements as given in the NIST ThermoML archive (doi:10.1021/je0602723).

Test: activity coefficient (dimensionless); of the first substance listed, at infinite dilution; xn = mol fraction of the nth substance listed
Conditions: Liquid, Chromatography, x1 = 0

Cc1ccccc1 [toluene] + CCOS(=O)(=O)[O-].CCn1cc[n+](C)c1
Conditions	activity coefficient
312.3 K	5.77
323 K	5.62
333.5 K	5.45
343.9 K	5.29
354.4 K	5.08
364.7 K	4.88
